The assay concerns the target T1, human adenosine A2b receptor (Homo sapiens, UniProt P29275).
T1 sequence (P29275 1-332): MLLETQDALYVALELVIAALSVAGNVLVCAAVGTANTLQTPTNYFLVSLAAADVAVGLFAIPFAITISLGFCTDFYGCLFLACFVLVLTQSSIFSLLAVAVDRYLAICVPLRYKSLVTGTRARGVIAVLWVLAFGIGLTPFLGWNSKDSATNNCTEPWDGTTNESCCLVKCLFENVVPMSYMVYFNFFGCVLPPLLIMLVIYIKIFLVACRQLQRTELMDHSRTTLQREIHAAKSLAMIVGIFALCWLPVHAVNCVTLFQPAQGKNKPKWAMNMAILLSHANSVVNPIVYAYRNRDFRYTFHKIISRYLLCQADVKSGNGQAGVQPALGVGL
The assay is described as follows: Cellular in vitro reporter gene test for A2b receptor activity (antagonism of NECA). The format is cell-based. Set-up: expressed in transfected cells; host or cells: CHO-K1 (Chinese hamster ovary) with CRE-luciferase reporter. Conditions: recombinant CHO-K1 cells, CRE-luciferase reporter, co-incubation with EC50 concentration of NECA, 3 hours. In short, it runs like this:
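Antagonism measured as block of NECA-induced, cAMP/CRE-dependent luciferase expression in recombinant A2b CHO-K1 cells. NECA used at the EC50 set in a pre-experiment on each test day; luminescence detected after 3 h. Reported as IC50, partly averaged and rounded to two significant figures.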
Background: Reporter assays use an easily measured gene product as a stand-in for the process of interest.

pIC50: −log10 of the molar value.

With `Cc1c(CN2CCNC2=O)sc2c1c(=O)n([C@H]1C[C@@H]1C)c(=O)n2CC1CCC1` [Example 248, 1-(Cyclobutylmethyl)-5-methyl-3-[(1S,2S)-2-methylcyclopropyl]-6-[(2-oxoimidazolidin-1-yl)methyl]thieno[2,3-d]pyrimidine-2,4(1H,3H)-dione], the pIC50 (usually the negative decadic logarithm of the IC50, by convention in mol/L) was 8.92.

As to `Cc1c(CN2CCNC2=O)sc2c1c(=O)n(C1CC1C)c(=O)n2CCCC(F)(F)F` (single isomer, unassigned) [Example 243, 5-Methyl-3-(2-methylcyclopropyl)-6-[(2-oxoimidazolidin-1-yl)methyl]-1-(4,4,4-trifluorobutyl)thieno[2,3-d]pyrimidine-2,4(1H,3H)-dione], the pIC50 was 8.08.

`COCCn1c(=O)n(C2(C)CCC2)c(=O)c2c(C)c(CN3CCNC(=O)C3=O)sc21` [Example 142, 6-[(2,3-Dioxopiperazin-1-yl)methyl]-1-(2-methoxyethyl)-5-methyl-3-(1-methylcyclobutyl)thieno[2,3-d]pyrimidine-2,4(1H,3H)-dione]: the pIC50 was 6.34.

As for `CO[C@H]1C[C@H](n2c(=O)c3c(C)c(CN4CCNC4=O)sc3n(CCC(F)(F)F)c2=O)C1` [Example 144, 3-(trans-3-Methoxycyclobutyl)-5-methyl-6-[(2-oxoimidazolidin-1-yl)methyl]-1-(3,3,3-trifluoropropyl)thieno[2,3-d]pyrimidine-2,4(1H,3H)-dione], the pIC50 is 8.00.

Regarding `Cc1c(CN2CCNC2=O)sc2c1c(=O)n([C@H]1C[C@@H]1C)c(=O)n2CC1CC1(F)F` (single isomer, unassigned) [Example 251], the pIC50 was 8.20.

In the case of `Cc1c(Cn2nc[nH]c2=O)sc2c1c(=O)n(C1CC1C)c(=O)n2CCOC(F)(F)F` (single isomer, unassigned) [Example 277, 5-Methyl-3-(2-methylcyclopropyl)-6-[(5-oxo-4,5-dihydro-1H-1,2,4-triazol-1-yl)methyl]-1-[2-(trifluoromethoxy)ethyl]thieno[2,3-d]pyrimidine-2,4(1H,3H)-dione], the pIC50 was 8.41.

With `Cc1c(CN2CCNC2=O)sc2c1c(=O)n(C1CC1C)c(=O)n2CC1CC(F)(F)C1` (racemic) [Example 252, 1-[(3,3-Difluorocyclobutyl)methyl]-5-methyl-3-(2-methylcyclopropyl)-6-[(2-oxoimidazolidin-1-yl)methyl]thieno[2,3-d]pyrimidine-2,4(1H,3H)-dione], the pIC50 is 8.85.

For the molecule `CO[C@H]1C[C@@H](n2c(=O)c3c(C)c(CN4CCNC4=O)sc3n(CCC(F)(F)F)c2=O)C1` [Example 154, 3-(cis-3-Methoxycyclobutyl)-5-methyl-6-[(2-oxoimidazolidin-1-yl)methyl]-1-(3,3,3-trifluoropropyl)thieno[2,3-d]pyrimidine-2,4(1H,3H)-dione], the pIC50 is 7.64.

With `Cc1c(CN2CCNC(=O)C2=O)sc2c1c(=O)n(C1CC(C)(C)C1)c(=O)n2CCC(F)(F)F` [Example 167, 3-(3,3-Dimethylcyclobutyl)-6-[(2,3-dioxopiperazin-1-yl)methyl]-5-methyl-1-(3,3,3-trifluoropropyl)thieno[2,3-d]pyrimidine-2,4(1H,3H)-dione], the pIC50 is 8.28.

Take `COCCn1c(=O)n(C2CC(C)(C)C2)c(=O)c2c(C)c(CN3CCNC3=O)sc21` [Example 169, 3-(3,3-Dimethylcyclobutyl)-1-(2-methoxyethyl)-5-methyl-6-[(2-oxoimidazolidin-1-yl)methyl]thieno[2,3-d]pyrimidine-2,4(1H,3H)-dione]: the pIC50 was 7.85.

Regarding `COCCn1c(=O)n([C@H]2C[C@H](OC)C2)c(=O)c2c(C)c(CN3CCNC3=NC#N)sc21` [Example 150, [1-{[3-(trans-3-Methoxycyclobutyl)-1-(2-methoxyethyl)-5-methyl-2,4-dioxo-1,2,3,4-tetrahydrothieno[2,3-d]pyrimidin-6-yl]methyl}imidazolidin-2-ylidene]cyanamide], the pIC50 was 6.92.

For `Cc1c(CN2CCNC2=O)sc2c1c(=O)n(C1CC1C)c(=O)n2CCCF` (single isomer, unassigned) [Example 92, 1-(3-Fluoropropyl)-5-methyl-3-(2-methylcyclopropyl)-6-[(2-oxoimidazolidin-1-yl)methyl]thieno[2,3-d]pyrimidine-2,4(1H,3H)-dione], the pIC50 was 8.55.

Regarding `[2H]C([2H])(c1sc2c(c1C)c(=O)n(C1CC1)c(=O)n2CCC(F)(F)F)N1CCNC1=O` [Example 16, 3-Cyclopropyl-5-methyl-6-[(2-oxoimidazolidin-1-yl)dideuteromethyl]-1-(3,3,3-trifluoropropyl)thieno[2,3-d]pyrimidine-2,4(1H,3H)-dione], the pIC50 was 8.52.

In the case of `CCC1CC1n1c(=O)c2c(C)c(CN3CCNC3=O)sc2n(CCOC)c1=O` (single isomer, unassigned) [Example 302, 3-(2-Ethylcyclopropyl)-1-(2-methoxyethyl)-5-methyl-6-[(2-oxoimidazolidin-1-yl)methyl]thieno[2,3-d]pyrimidine-2,4(1H,3H)-dione], the pIC50 is 8.00.

In the case of `CCc1c(CN2CCNC2=O)sc2c1c(=O)n(C1(C)CC1)c(=O)n2CCC(F)(F)F` [Example 218, 5-Ethyl-3-(1-methylcyclopropyl)-6-[(2-oxoimidazolidin-1-yl)methyl]-1-(3,3,3-trifluoropropyl)thieno[2,3-d]pyrimidine-2,4(1H,3H)-dione], the pIC50 was 7.27.

In the case of `Cc1c(Cn2[nH]ccc2=O)sc2c1c(=O)n(C1CC1)c(=O)n2CCC(F)(F)F` [Example 200, 3-Cyclopropyl-5-methyl-6-[(5-oxo-2,5-dihydro-H-pyrazol-1-yl)methyl]-1-(3,3,3-trifluoropropyl)thieno[2,3-d]pyrimidine-2,4(1H,3H)-dione], the pIC50 was 7.26.

As for `Cc1c(CN2CCNC2=O)sc2c1c(=O)n(C1CC1C)c(=O)n2CCF` (single isomer, unassigned) [Example 232, 1-(2-Fluoroethyl)-5-methyl-3-(2-methylcyclopropyl)-6-[(2-oxoimidazolidin-1-yl)methyl]thieno[2,3-d]pyrimidine-2,4(1H,3H)-dione], the pIC50 was 9.07.

Regarding `Cc1c(Cn2nc[nH]c2=O)sc2c1c(=O)n(C1(C)CC1)c(=O)n2CC1CC1(F)F` (single isomer, unassigned) [Example 67, 1-[(2,2-Difluorocyclopropyl)methyl]-5-methyl-3-(1-methylcyclopropyl)-6-[(5-oxo-4,5-dihydro-1H-1,2,4-triazol-1-yl)methyl]thieno[2,3-d]pyrimidine-2,4(1H,3H)-dione], the pIC50 was 7.27.

Turning to `Cc1c(CN2CCNC2=O)sc2c1c(=O)n(C1CC1(C)C)c(=O)n2CCCF` (racemic) [Example 97, 3-(2,2-Dimethylcyclopropyl)-1-(3-fluoropropyl)-5-methyl-6-[(2-oxoimidazolidin-1-yl)methyl]thieno[2,3-d]pyrimidine-2,4(1H,3H)-dione], the negative logarithm of the IC50 (pIC50) was 7.59.

With `COCCn1c(=O)n(C2(C(F)(F)F)CC2)c(=O)c2c(C)c(CN3CCNC3=NC(=O)OC)sc21` [Example 87, Methyl [1-({1-(2-methoxyethyl)-5-methyl-2,4-dioxo-3-[1-(trifluoromethyl)cyclopropyl]-1,2,3,4-tetrahydrothieno[2,3-d]pyrimidin-6-yl}methyl)imidazolidin-2-ylidene]carbamate], the pIC50 is 6.85.

Take `COC(=O)N=C1NCCN1Cc1sc2c(c1C)c(=O)n(C1CCC1)c(=O)n2CCC(F)(F)F` [Example 112, Methyl [1-{[3-cyclobutyl-5-methyl-2,4-dioxo-1-(3,3,3-trifluoropropyl)-1,2,3,4-tetrahydrothieno[2,3-d]pyrimidin-6-yl]methyl}imidazolidin-2-ylidene]carbamate]: the pIC50 was 8.92.

For `Cc1c(CN2CCNC(=O)C2=O)sc2c1c(=O)n(C1COC1)c(=O)n2CCC(F)(F)F` [Example 133, 6-[(2,3-Dioxopiperazin-1-yl)methyl]-5-methyl-3-(oxetan-3-yl)-1-(3,3,3-trifluoropropyl)thieno[2,3-d]pyrimidine-2,4(1H,3H)-dione], the pIC50 was 6.37.

For the molecule `COCCn1c(=O)n(C2CCCC2)c(=O)c2c(C)c(CN3CCNC(=O)C3=O)sc21` [Example 192, 3-Cyclopentyl-6-[(2,3-dioxopiperazin-1-yl)methyl]-1-(2-methoxyethyl)-5-methylthieno[2,3-d]pyrimidine-2,4(1H,3H)-dione], the pIC50 is 6.85.

As to `Cc1c(Cn2nc[nH]c2=O)sc2c1c(=O)n(C1CC1)c(=O)n2CC1CCC1(F)F` (single isomer, unassigned; enantiomer 2) [Example 203, 3-Cyclopropyl-1-[(2,2-difluorocyclobutyl)methyl]-5-methyl-6-[(5-oxo-4,5-dihydro-1H-1,2,4-triazol-1-yl)methyl]thieno[2,3-d]pyrimidine-2,4(1H,3H)-dione (enantiomer 2)], the pIC50 was 6.80.

Consider `CCC1(n2c(=O)c3c(C)c(Cn4nc[nH]c4=O)sc3n(CCOC)c2=O)CC1` [Example 109, 3-(1-Ethylcyclopropyl)-1-(2-methoxyethyl)-5-methyl-6-[(5-oxo-4,5-dihydro-H-1,2,4-triazol-1-yl)methyl]thieno[2,3-d]pyrimidine-2,4(1H,3H)-dione], for which the pIC50 is 6.19.

Consider `Cc1c(CN2CCNC2=S)sc2c1c(=O)n(C1CC1)c(=O)n2CC1CCCO1` (racemic) [Example 40, 3-Cyclopropyl-5-methyl-1-(tetrahydrofuran-2-ylmethyl)-6-[(2-thioxoimidazolidin-1-yl)methyl]thieno[2,3-d]pyrimidine-2,4(1H,3H)-dione], for which the pIC50 is 7.82.

The values are drawn from patent US20200016159A1, “N3-CYCLICALLY SUBSTITUTED THIENOURACILS AND USE THEREOF” (Bayer Aktiengesellschaft, priority 2016, published 2020).
